This note sets out measurements from patent US8389557B2, “Triazole derivatives useful as Axl inhibitors” (Rigel Pharmaceuticals, Inc., priority 2005, dated 2013).

This assay deals with T1, Axl (Homo sapiens, UniProt P30530).
T1 construct: endogenous in cells; host or cells: HeLa cells
T1 sequence (P30530 26-894): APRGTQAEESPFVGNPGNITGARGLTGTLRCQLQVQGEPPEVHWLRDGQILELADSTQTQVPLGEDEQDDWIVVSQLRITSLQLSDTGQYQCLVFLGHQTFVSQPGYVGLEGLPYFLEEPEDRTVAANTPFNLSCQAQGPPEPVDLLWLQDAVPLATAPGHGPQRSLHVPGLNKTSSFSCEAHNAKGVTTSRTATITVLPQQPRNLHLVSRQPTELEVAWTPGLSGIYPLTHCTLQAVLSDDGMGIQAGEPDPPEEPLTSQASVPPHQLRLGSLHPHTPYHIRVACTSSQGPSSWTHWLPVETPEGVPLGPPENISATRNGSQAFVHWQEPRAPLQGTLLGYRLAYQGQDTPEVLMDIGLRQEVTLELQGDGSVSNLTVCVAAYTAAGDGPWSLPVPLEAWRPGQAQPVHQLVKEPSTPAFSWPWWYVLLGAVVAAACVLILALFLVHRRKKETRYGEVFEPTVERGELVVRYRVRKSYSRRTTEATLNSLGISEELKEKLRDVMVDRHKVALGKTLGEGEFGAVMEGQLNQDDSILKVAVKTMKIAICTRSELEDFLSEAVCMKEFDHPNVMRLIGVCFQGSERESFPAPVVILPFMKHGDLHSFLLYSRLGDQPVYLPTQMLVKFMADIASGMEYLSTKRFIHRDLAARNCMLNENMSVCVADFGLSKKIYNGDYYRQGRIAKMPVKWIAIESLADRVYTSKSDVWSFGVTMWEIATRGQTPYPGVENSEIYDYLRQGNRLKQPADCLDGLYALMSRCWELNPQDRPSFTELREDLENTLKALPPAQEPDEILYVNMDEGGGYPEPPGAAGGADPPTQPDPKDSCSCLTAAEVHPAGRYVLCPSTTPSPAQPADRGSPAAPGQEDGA
As to the kind of experiment: Phospho-Akt in-cell Western assay (inhibition of Axl activity). The assay is classed as cell-based. The essentials:
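HeLa cells on poly-L-lysine, starved 24 h in 0.5% FCS DMEM with Axl/Fc 500 ng/mL, pre-treated with compound 1 h at 37° C. Axl stimulated 5 min by anti-Axl/anti-mouse antibody cross-linking. Fixed cells probed with anti-phospho-Akt and HRP secondary, chemiluminescence read.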

Where [1] appears, read: inhibition of Axl activity, Table 1.
Setting [2] is: Table 3, Hela cells, Axl antibody cross-linking stimulation, phospho-Akt chemiluminescence.
Setting [3] is: Table 2, Hela cells, Axl antibody cross-linking stimulation, phospho-Akt chemiluminescence.
Setting [4] is: inhibition of Axl activity, phospho-Akt in-cell Western assay, Table 1.
Setting [5] is: Table 5, Hela cells, Axl antibody cross-linking stimulation, phospho-Akt chemiluminescence.

The structures appear in SMILES notation.

Compound `Nc1nc(Nc2ccc(OCCN3CCCCC3)cc2)nn1C(=O)c1ccc(C2CCCCC2)cc1` [compound 62, 5-amino-1-(4-(cyclohexyl)phenyl)carbonyl-3-[4-[2-(piperidin-1-yl)ethoxy]phenylamino]-1H-1,2,4-triazole] displayed an IC50 under setting [1] of 1000 to 10000 nM.
Regarding `Nc1nc(Nc2ccc(N3CCOCC3)cc2)nn1C(=O)c1cccc(Cl)c1` [compound 74, 5-amino-1-(3-(chloro)phenyl)carbonyl-3-(4-(morpholin-4-yl)phenylamino)-1H-1,2,4-triazole], the concentration for half-maximal inhibition (IC50) under setting [1] lay within 1000 to 10000 nM.
For `Nc1nc(Nc2ccc(OCCN3CCCC3)cc2)nn1C(=O)c1ccc2sccc2c1` [compound 369, 5-amino-1-(benzo[b]thiophen-5-yl)carbonyl-3-[4-[2-(pyrrolidin-1-yl)ethoxy]phenylamino]-1H-1,2,4-triazole], the half-maximal inhibitory concentration (IC50) under setting [2] was < 1000 nM.
On to `Nc1nc(Nc2ccc(OCCn3ccnc3)cc2)nn1C(=O)c1ccc2cc[nH]c2c1` [compound 375, 5-amino-1-(1H-indol-6-yl)carbonyl-3-[4-[2-(imidazol-1-yl)ethoxy]phenylamino]-1H-1,2,4-triazole], for which the 50% inhibitory concentration (IC50) under setting [2] was < 1000 nM.
As to `COc1ccccc1Nc1nc(N)n(C(=O)c2ccc(C)cc2)n1` [compound 143, 5-amino-3-[2-(methoxy)phenylamino]-1-(4-(methyl)phenyl)carbonyl-1H-1,2,4-triazole], the IC50 under setting [1] is > 20000 nM.
For the compound `Cc1ccc(C(=O)n2nc(N)nc2Nc2ccc(N3CCCC3)cc2)cc1` [compound 301, 3-amino-1-(4-methylphenyl)carbonyl-5-(4-(pyrrolidin-1-yl)phenylamino]-1H-1,2,4-triazole], the half-inhibitory concentration (IC50) under setting [3] was > 20000 nM.
Consider `CC(C)Oc1ccc(C(=O)n2nc(Nc3ccc(OCCCN4CCCC4)cc3)nc2N)cc1` [compound #10, 5-Amino-1-(4-(iso-propoxy)phenyl)carbonyl-3-[4-[3-(pyrrolidin-1-yl)propoxy]phenylamino]-1H-1,2,4-triazole], for which the half-inhibitory concentration (IC50) under setting [4] is < 1000 nM.
As to `CN(C)c1ccc(C(=O)n2nc(Nc3ccc(OCCN4CCCC4)cc3)nc2N)cc1` [compound #4, 5-Amino-1-(4-(dimethylamino)phenyl)carbonyl-3-[4-[2-(pyrrolidin-1-yl)ethoxy]phenylamino]-1H-1,2,4-triazole], the IC50 under setting [4] is < 1000 nM.
As to `Nc1nc(Nc2ccc(OCCN3CCCC3)cc2)nn1C(=O)c1ccc2c(c1)OCCO2` [compound #17, 5-Amino-1-(1,4-benzodioxan-6-yl)carbonyl-3-[4-[2-(pyrrolidin-1-yl)ethoxy]phenylamino]-1H-1,2,4-triazole], the 50% inhibitory concentration (IC50) under setting [4] is < 1000 nM.
As to `CC(C)Oc1cccc(C(=O)n2nc(Nc3ccc(OCCN4CCOCC4)cc3)nc2N)c1` [compound 169, 5-amino-1-(3-(iso-propoxy)phenyl)carbonyl-3-[4-[2-(morpholin-4-yl)ethoxy]phenylamino]-1H-1,2,4-triazole], the half-inhibitory concentration (IC50) under setting [1] is < 1000 nM.
The same measure, in the same setting: the value for `COc1cccc(Nc2nc(N)n(C(=O)c3ccc(C)cc3)n2)c1` [compound 134, 5-amino-3-[3-(methoxy)phenylamino]-1-(4-(methyl)phenyl)carbonyl-1H-1,2,4-triazole] was 1000 to 10000 nM.
For the compound `CC(C)(C)Oc1ccc(C(=O)n2nc(Nc3ccccc3)nc2N)cc1` [compound 341, 5-amino-1-(4-(tert-butoxy)phenyl)carbonyl-3-(phenylamino)-1H-1,2,4-triazole], the IC50 under setting [4] lay in the range of 1000 to 10000 nM.
On the same count and under the same terms, next, `CC(C)Oc1ccc(C(=O)n2nc(Nc3ccc(OCCN4CCCCCC4)cc3)nc2N)cc1` [compound 321, 5-amino-1-(4-(iso-propoxy)phenyl)carbonyl-3-[4-[2-(azepan-1-yl)ethoxy]phenylamino]-1H-1,2,4-triazole]: < 1000 nM.
Regarding `CC(C)Oc1ccc(C(=O)n2nc(Nc3ccc(OCC(F)(F)F)cc3)nc2N)cc1` [compound 152, 5-amino-1-(4-(iso-propoxy)phenyl)carbonyl-3-[4-(2,2,2-trifluoroethoxy)phenylamino]-1H-1,2,4-triazole], under setting [1], the IC50 is > 20000 nM.
With `COc1cccc(C(=O)n2nc(Nc3ccc(N4CCOCC4)cc3)nc2N)c1` [compound 81, 5-amino-1-(3-(methoxy)phenyl)carbonyl-3-(4-(morpholin-4-yl)phenylamino)-1H-1,2,4-triazole], the half-maximal inhibitory concentration (IC50) under setting [1] lay in the range of 1000 to 10000 nM.
`CCOC(=O)c1cc2cc(Nc3nc(N)n(C(=O)c4cccc(C)c4)n3)ccc2o1` [compound 219, 5-amino-3-[2-(ethoxycarbonyl)benzofuran-5-yl]amino-1-(3-methylphenyl)carbonyl-1H-1,2,4-triazole]: under setting [5], the 50% inhibitory concentration (IC50) is 1000 to 10000 nM.
Under setting [1], `Nc1nc(Nc2ccc3c(c2)OCCO3)nn1C(=O)c1ccc(OCCN2CCCCC2)cc1` [compound 226] yielded an IC50 of 1000 to 10000 nM.
`Nc1nc(Nc2ccccc2)nn1C(=O)c1cccc(N2CCOCC2)c1` [compound 336, 5-amino-1-(3-(morpholin-4-yl)phenyl)carbonyl-3-(phenylamino)-1H-1,2,4-triazole]: the IC50 under setting [4] lay within 10000 to 20000 nM.
For the compound `NC(=O)C1C2C=CC(C2)C1Nc1nc(N)nn1C(=O)c1ccc2cc[nH]c2c1` (stereo not drawn) [compound 355, 3-amino-1-(1H-indol-6-yl)carbonyl-5-[(3-(aminocarbonyl)bicyclo[2.2.1]hept-5-en-2-yl)amino]-1H-1,2,4-triazole], the half-maximal inhibitory concentration (IC50) (Table 10, Hela cells, Axl antibody cross-linking stimulation, phospho-Akt chemiluminescence) was > 20000 nM.
With `COC(=O)n1nc(N)nc1Nc1ccc2c(c1)OCCO2` [compound 93, 3-amino-5-(1,4-benzodioxan-6-yl)amino-1-methoxycarbonyl-1H-1,2,4-triazole], for the setting “Table 8, Hela cells, Axl antibody cross-linking stimulation, phospho-Akt chemiluminescence”, the concentration for half-maximal inhibition (IC50) was > 20000 nM.
Take `CC(C)(C)Oc1cccc(C(=O)n2nc(NC3C4C=CC(C4)C3C(N)=O)nc2N)c1` (stereo not drawn) [compound 348, 5-amino-1-(3-(tert-butoxy)phenyl)carbonyl-3-[(5-(aminocarbonyl)bicyclo[2.2.1]hept-2-en-6-yl)amino]-1H-1,2,4-triazole]: the IC50 under setting [5] is > 20000 nM.
`Nc1nc(Nc2ccc(OCCN3CCCCCC3)cc2)nn1C(=O)c1ccc(-c2csnn2)cc1` [compound 324, 5-amino-1-(4-(1,2,3-thiadiazol-4-yl)phenyl)carbonyl-3-[4-[2-(azepan-1-yl)ethoxy]phenylamino]-1H-1,2,4-triazole]: the concentration for half-maximal inhibition (IC50) under setting [4] was < 1000 nM.
Take `COc1cccc(C(=O)n2nc(Nc3ccc(OCCN4CCCCC4)cc3)nc2N)c1` [compound 80, 5-amino-1-(3-(methoxy)phenyl)carbonyl-3-[4-[2-(piperidin-1-yl)ethoxy]phenylamino]-1H-1,2,4-triazole]: under setting [1], the IC50 was < 1000 nM.
`Nc1nc(Nc2ccc(OCCN3CCCCCC3)cc2)nn1C(=O)c1ccc2cc[nH]c2c1` [compound 323, 5-amino-1-(1H-indol-6-yl)carbonyl-3-[4-[2-(azepan-1-yl)ethoxy]phenylamino]-1H-1,2,4-triazole]: under setting [2], the 50% inhibitory concentration (IC50) is < 1000 nM.
Take `CC(C)(C)Oc1cccc(C(=O)n2nc(Nc3ccc(OCCN4CCCC4)cc3)nc2N)c1` [compound #18, 5-Amino-3-[4-[2-(pyrrolidin-1-yl)ethoxy]phenylamino]-1-(3-(tert-butoxy)phenyl)carbonyl-1H-1,2,4-triazole]: under setting [4], the IC50 is < 1000 nM.
Under setting [3], `CN1CCN(c2ccc(Nc3nc(N)nn3C(=O)c3cccc(N(C)C)c3)cc2)CC1` [compound 364, 3-amino-1-(3-(dimethylamino)phenyl)carbonyl-5-(4-(4-methylpiperazin-1-yl)phenylamino]-1H-1,2,4-triazole] returned an IC50 of 1000 to 10000 nM.
For `Cc1cc(C(=O)n2nc(Nc3ccc4c(c3)OCCO4)nc2N)ccc1OC(C)C` [compound 258, 5-amino-3-(1,4-benzodioxan-6-yl)amino-1-(3-methyl-4-iso-propoxy)phenylcarbonyl-1H-1,2,4-triazole], under setting [1], the concentration for half-maximal inhibition (IC50) lay in the range of 1000 to 10000 nM.
As for `COc1cc(NC(=O)n2nc(Nc3ccc(OCCN4CCCC4)cc3)nc2N)cc(OC)c1` [compound 34, 5-amino-N-(3,5-(dimethoxy)phenyl)-3-[4-[2-(pyrrolidin-1-yl)ethoxy]phenylamino]-1H-1,2,4-triazole-1-carboxamide], the IC50 (Table 7, Hela cells, Axl antibody cross-linking stimulation, phospho-Akt chemiluminescence) is < 1000 nM.
`CC(C)Oc1ccc(Nc2nc(N)n(C(=O)c3ccc(OCCN4CCCCC4)cc3)n2)cc1` [compound 77, 5-amino-3-[4-(iso-propoxy)phenylamino]-1-[4-[2-(piperidin-1-yl)ethoxy]phenyl)carbonyl-1H-1,2,4-triazole] had a concentration for half-maximal inhibition (IC50) under setting [1] of 1000 to 10000 nM.
In the case of `CC(C)(C)Oc1cccc(C(=O)n2nc(Nc3ccc(OCCn4ccnc4)cc3)nc2N)c1` [compound 371, 5-amino-1-(3-(tert-butoxy)phenyl)carbonyl-3-[4-[2-(imidazol-1-yl)ethoxy]phenylamino]-1H-1,2,4-triazole], the concentration for half-maximal inhibition (IC50) under setting [4] fell in the range of 1000 to 10000 nM.
